Measurements taken from PubChem BioAssay (NCI).
Several values for one entry are separate records, joined by “and”; a condition that tells them apart may be missing. Identical values can stand only once.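 Following 48 hours of exposure in 96-well plates, responses at five concentrations were used to interpolate endpoints linearly. GI50 marks 50% less growth. Definition used: TGI = concentration required for complete inhibition of growth.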

Legend:
Assay in all cases: NCI tumour cell line growth inhibition, 48 h; in the data active = GI50 below about 0.43 µM; inactive = the rest
786-0 renal = test system: 786-0 renal
A498 renal = test system: A498 renal
A549 NSCLC = test system: A549 NSCLC
ACHN renal = test system: ACHN renal
BT-549 breast = test system: BT-549 breast
CAKI-1 renal = test system: CAKI-1 renal
CCRF-CEM leukemia = test system: CCRF-CEM leukemia
COLO 205 colon = test system: COLO 205 colon
DU-145 prostate = test system: DU-145 prostate
EKVX NSCLC = test system: EKVX NSCLC
HCC-2998 colon = test system: HCC-2998 colon
HCT-116 colon = test system: HCT-116 colon
HCT-15 colon = test system: HCT-15 colon
HL-60(TB) leukemia = test system: HL-60(TB) leukemia
HOP-62 NSCLC = test system: HOP-62 NSCLC
HOP-92 NSCLC = test system: HOP-92 NSCLC
HS 578T breast = test system: HS 578T breast
HT29 colon = test system: HT29 colon
IGROV1 ovarian = test system: IGROV1 ovarian
K-562 leukemia = test system: K-562 leukemia
KM12 colon = test system: KM12 colon
LOX IMVI melanoma = test system: LOX IMVI melanoma
M14 melanoma = test system: M14 melanoma
MALME-3M melanoma = test system: MALME-3M melanoma
MCF7 breast = test system: MCF7 breast
MDA-MB-231 breast = test system: MDA-MB-231 breast
MDA-MB-435 = test system: MDA-MB-435
MDA-N = test system: MDA-N
MOLT-4 leukemia = test system: MOLT-4 leukemia
NCI-H226 lung = test system: NCI-H226 lung
NCI-H23 lung = test system: NCI-H23 lung
NCI-H460 lung = test system: NCI-H460 lung
NCI-H522 lung = test system: NCI-H522 lung
NCI/ADR-RES ovarian = test system: NCI/ADR-RES ovarian
OVCAR-3 ovarian = test system: OVCAR-3 ovarian
OVCAR-4 ovarian = test system: OVCAR-4 ovarian
OVCAR-5 ovarian = test system: OVCAR-5 ovarian
OVCAR-8 ovarian = test system: OVCAR-8 ovarian
PC-3 prostate = test system: PC-3 prostate
RPMI-8226 leukemia = test system: RPMI-8226 leukemia
RXF 393 renal = test system: RXF 393 renal
SF-268 CNS = test system: SF-268 CNS
SF-295 CNS = test system: SF-295 CNS
SF-539 CNS = test system: SF-539 CNS
SK-MEL-2 melanoma = test system: SK-MEL-2 melanoma
SK-MEL-28 melanoma = test system: SK-MEL-28 melanoma
SK-MEL-5 melanoma = test system: SK-MEL-5 melanoma
SK-OV-3 ovarian = test system: SK-OV-3 ovarian
SN12C renal = test system: SN12C renal
SNB-19 CNS = test system: SNB-19 CNS
SNB-75 CNS = test system: SNB-75 CNS
SW-620 colon = test system: SW-620 colon
T-47D breast = test system: T-47D breast
TK-10 renal = test system: TK-10 renal
U251 CNS = test system: U251 CNS
UACC-257 melanoma = test system: UACC-257 melanoma
UACC-62 melanoma = test system: UACC-62 melanoma
UO-31 renal = test system: UO-31 renal
SR leukemia = test system: SR leukemia

C[C@H]1CCC/C=C/[C@@H]2C[C@H](O)C[C@H]2[C@H](O)[C@@H](S(=O)CCN(C)C)CC(=O)O1 (some centres undefined)
0.876 µM: TGI (COLO 205 colon)
> 59.3 µM: TGI (M14 melanoma)
> 100 µM: TGI (A549 NSCLC) | TGI (CCRF-CEM leukemia) | TGI (DU-145 prostate) | TGI (HCC-2998 colon) | TGI (HL-60(TB) leukemia) | TGI (HOP-92 NSCLC) | TGI (K-562 leukemia) | TGI (LOX IMVI melanoma) | TGI (MDA-MB-435) | TGI (MDA-N) | TGI (NCI-H226 lung) | TGI (NCI-H460 lung) | TGI (NCI/ADR-RES ovarian) | TGI (OVCAR-4 ovarian) | TGI (OVCAR-5 ovarian) | TGI (RXF 393 renal) | TGI (SF-295 CNS) | TGI (SF-539 CNS) | TGI (SK-MEL-28 melanoma) | TGI (SNB-19 CNS) | TGI (TK-10 renal) | TGI (U251 CNS) | TGI (UACC-257 melanoma) | TGI (UACC-62 melanoma) | TGI (UO-31 renal)
0.458 µM: TGI (MDA-MB-231 breast)
> 38.8 µM: TGI (NCI-H23 lung)
inactive: GI50 (ACHN renal) 0.428 µM | GI50 (DU-145 prostate) 0.555 µM | GI50 (HOP-62 NSCLC) 0.458 µM | GI50 (HOP-92 NSCLC) 4.99 µM | GI50 (K-562 leukemia) 0.633 µM | GI50 (SF-295 CNS) 0.524 µM | GI50 (SK-MEL-28 melanoma) 0.586 µM | GI50 (TK-10 renal) 0.468 µM | GI50 (U251 CNS) 0.498 µM
0.191 µM: TGI (NCI-H522 lung)
0.131 µM: TGI (SK-MEL-5 melanoma)
> 40.8 µM: TGI (HS 578T breast)
> 23.2 µM: TGI (PC-3 prostate)
> 57.9 µM: TGI (HCT-15 colon)
active: GI50 (786-0 renal) 0.0416 µM | GI50 (A498 renal) 0.116 µM | GI50 (A549 NSCLC) 0.178 µM | GI50 (BT-549 breast) 0.202 µM | GI50 (CAKI-1 renal) 0.389 µM | GI50 (CCRF-CEM leukemia) 0.388 µM | GI50 (COLO 205 colon) 0.107 µM | GI50 (EKVX NSCLC) 0.384 µM | GI50 (HCC-2998 colon) 0.386 µM | GI50 (HCT-116 colon) 0.279 µM | GI50 (HCT-15 colon) 0.363 µM | GI50 (HL-60(TB) leukemia) 0.303 µM | GI50 (HS 578T breast) 0.0646 µM | GI50 (HT29 colon) 0.114 µM | GI50 (IGROV1 ovarian) 0.337 µM | GI50 (KM12 colon) 0.0351 µM | GI50 (LOX IMVI melanoma) 0.0697 µM | GI50 (M14 melanoma) 0.111 µM | GI50 (MALME-3M melanoma) 0.174 µM | GI50 (MCF7 breast) 0.147 µM | GI50 (MDA-MB-231 breast) 0.114 µM | GI50 (MDA-MB-435) 0.193 µM | GI50 (MDA-N) 0.228 µM | GI50 (MOLT-4 leukemia) 0.349 µM | GI50 (NCI-H226 lung) 0.0562 µM | GI50 (NCI-H23 lung) 0.229 µM | GI50 (NCI-H460 lung) 0.351 µM | GI50 (NCI-H522 lung) 0.0677 µM | GI50 (NCI/ADR-RES ovarian) 0.0629 µM | GI50 (OVCAR-3 ovarian) 0.115 µM | GI50 (OVCAR-4 ovarian) 0.219 µM | GI50 (OVCAR-5 ovarian) 0.367 µM | GI50 (OVCAR-8 ovarian) 0.0966 µM | GI50 (PC-3 prostate) 0.26 µM | GI50 (RPMI-8226 leukemia) 0.387 µM | GI50 (RXF 393 renal) 0.0542 µM | GI50 (SF-268 CNS) 0.0564 µM | GI50 (SF-539 CNS) 0.151 µM | GI50 (SK-MEL-2 melanoma) 0.223 µM | GI50 (SK-MEL-5 melanoma) 0.0374 µM | GI50 (SK-OV-3 ovarian) 0.295 µM | GI50 (SN12C renal) 0.256 µM | GI50 (SNB-75 CNS) 0.0332 µM | GI50 (SW-620 colon) 0.277 µM | GI50 (T-47D breast) 0.338 µM | GI50 (UACC-257 melanoma) 0.0904 µM | GI50 (UACC-62 melanoma) 0.0667 µM | GI50 (UO-31 renal) 0.184 µM
> 67.6 µM: TGI (SK-OV-3 ovarian)
> 63.4 µM: TGI (HOP-62 NSCLC)
0.154 µM: TGI (KM12 colon)
1.19 µM: TGI (HCT-116 colon)
0.42 µM: TGI (MALME-3M melanoma)
0.293 µM: TGI (HT29 colon)

CC(C)C(N=Cc1ccccc1O)C(=O)O (centres undefined)
> 100 µM: TGI (786-0 renal) | TGI (A498 renal) | TGI (A549 NSCLC) | TGI (ACHN renal) | TGI (BT-549 breast) | TGI (CAKI-1 renal) | TGI (CCRF-CEM leukemia) | TGI (COLO 205 colon) | TGI (DU-145 prostate) | TGI (EKVX NSCLC) | TGI (HCT-116 colon) | TGI (HCT-15 colon) | TGI (HL-60(TB) leukemia) | TGI (HOP-62 NSCLC) | TGI (HOP-92 NSCLC) | TGI (HS 578T breast) | TGI (HT29 colon) | TGI (IGROV1 ovarian) | TGI (K-562 leukemia) | TGI (KM12 colon) | TGI (LOX IMVI melanoma) | TGI (M14 melanoma) | TGI (MALME-3M melanoma) | TGI (MCF7 breast) | TGI (MDA-MB-231 breast) | TGI (MDA-MB-435) | TGI (MDA-N) | TGI (MOLT-4 leukemia) | TGI (NCI-H226 lung) | TGI (NCI-H23 lung) | TGI (NCI-H460 lung) | TGI (NCI-H522 lung) | TGI (NCI/ADR-RES ovarian) | TGI (OVCAR-3 ovarian) | TGI (OVCAR-4 ovarian) | TGI (OVCAR-5 ovarian) | TGI (OVCAR-8 ovarian) | TGI (PC-3 prostate) | TGI (RPMI-8226 leukemia) | TGI (SF-268 CNS) | TGI (SF-295 CNS) | TGI (SF-539 CNS) | TGI (SK-MEL-2 melanoma) | TGI (SK-MEL-28 melanoma) | TGI (SK-MEL-5 melanoma) | TGI (SK-OV-3 ovarian) | TGI (SN12C renal) | TGI (SNB-19 CNS) | TGI (SR leukemia) | TGI (SW-620 colon) | TGI (T-47D breast) | TGI (TK-10 renal) | TGI (U251 CNS) | TGI (UACC-257 melanoma) | TGI (UACC-62 melanoma) | TGI (UO-31 renal)

CC(=O)OC1COC(n2c(N)c(C#N)c(C)c(C#N)c2=S)C(OC(C)=O)C1OC(C)=O (centres undefined)
> 100 µM: TGI (786-0 renal) | TGI (A498 renal) | TGI (A549 NSCLC) | TGI (ACHN renal) | TGI (BT-549 breast) | TGI (CAKI-1 renal) | TGI (CCRF-CEM leukemia) | TGI (DU-145 prostate) | TGI (HCC-2998 colon) | TGI (HCT-15 colon) | TGI (HL-60(TB) leukemia) | TGI (HOP-62 NSCLC) | TGI (HS 578T breast) | TGI (HT29 colon) | TGI (IGROV1 ovarian) | TGI (K-562 leukemia) | TGI (KM12 colon) | TGI (LOX IMVI melanoma) | TGI (M14 melanoma) | TGI (MALME-3M melanoma) | TGI (MCF7 breast) | TGI (MDA-MB-231 breast) | TGI (MDA-MB-435) | TGI (MDA-N) | TGI (MOLT-4 leukemia) | TGI (NCI-H226 lung) | TGI (NCI-H23 lung) | TGI (NCI-H460 lung) | TGI (NCI-H522 lung) | TGI (NCI/ADR-RES ovarian) | TGI (OVCAR-3 ovarian) | TGI (OVCAR-5 ovarian) | TGI (OVCAR-8 ovarian) | TGI (PC-3 prostate) | TGI (RPMI-8226 leukemia) | TGI (RXF 393 renal) | TGI (SF-268 CNS) | TGI (SF-295 CNS) | TGI (SF-539 CNS) | TGI (SK-MEL-2 melanoma) | TGI (SK-MEL-28 melanoma) | TGI (SK-MEL-5 melanoma) | TGI (SK-OV-3 ovarian) | TGI (SN12C renal) | TGI (SNB-19 CNS) | TGI (SNB-75 CNS) | TGI (SR leukemia) | TGI (SW-620 colon) | TGI (T-47D breast) | TGI (TK-10 renal) | TGI (UACC-257 melanoma) | TGI (UACC-62 melanoma) | TGI (UO-31 renal)
inactive: GI50 (CCRF-CEM leukemia) > 100 µM and 32 µM | GI50 (DU-145 prostate) > 100 µM | GI50 (HL-60(TB) leukemia) > 100 µM and 36.6 µM | GI50 (HS 578T breast) > 100 µM and 38.3 µM | GI50 (MOLT-4 leukemia) > 100 µM and 43.2 µM | GI50 (RXF 393 renal) 17.4 µM and 59.8 µM | GI50 (SK-MEL-2 melanoma) > 100 µM and 26 µM | GI50 (SNB-19 CNS) > 100 µM
